Laboratory results from patent publication US20220332774A1, “THERAPEUTIC MITOCHONDRIAL PEPTIDES” (priority 2019, published 2022).

Legend:
3T3-L1 Mouse Adipocytes = test: Free fatty acid levels in cultured 3T3-L1 mouse adipocytes (isoproterenol stimulated); assay type: cell-based; conditions: free fatty acid in medium; 5 μM peptide, 20-22 h pre-incubation then 3 h with 0.1 nM isoproterenol; isoproterenol alone = 100%
Protocol: The effect of the peptides on fatty acid metabolism can be assessed using an assay to monitor free fatty acid levels produced by cultured cells such as mouse adipocytes. Peptide arrays were initially prepared as 5 mM stock in DMSO and diluted to 0.5 mM in H2O; peptides were used at a final concentration of 5 μM (0.1% DMSO). Calculations for peptide concentrations based on approximate molecular weight of 2000 Daltons. […] Mouse 3T3-L1 cells purchased from ZenBio (Research Triangle Park, NC) were seeded at 3,000 cells per well in 96-well plates in Pre-adipocyte Medium (Zen-Bio) and grown to confluence at 37° C. in a humidified atmosphere of 5% CO2/95% air. Two days after confluence, cells were placed in Adipocyte Differentiation Medium (Zen-Bio) and cultured for three additional days at 37° C. in a humidified atmosphere of 5% CO2/95% air. The culture medium was then replaced with Adipocyte Maintenance Medium (Zen-Bio) and the cells maintained for an additional 9 days at 37° C. in a humidified atmosphere of 5% CO2/95% air with partial medium replacement every other day. Following 12 days of differentiation, medium was replaced Adipocyte Maintenance Medium without insulin and the cultures placed at 37° C. in a humidified atmosphere of 5% CO2/95% air. On day 13 of differentiation, test peptides were added directly to each well (without replacing the medium) at a final concentration of 5 μM in 0.1% DMSO and incubated for 20-22 hours at 37° C. in a humidified atmosphere of 5% CO2/95% air. […] Cells were incubated for 3 hours in Assay Buffer (Zen-Bio) at 37° C. in a humidified atmosphere of 5% CO2/95% air. Following 3 h incubation, conditioned medium from each well was transferred to a fresh 96-well plate. Free fatty acid concentrations in the medium were determined using a Free Fatty Acid Assay kit (Zen-Bio) according to the manufacturer's instructions; absorbance was measured using a Cytation 3 plate reader at 540 nm (BioTek, Winooski, Vt.). Treatment with 0.1 nM isoproterenol alone was used as the free fatty acid level stimulatory control. Absorbance values were expressed as percent control activity relative to 0.1 nM isoproterenol alone treated cells, 100%. The relative standard deviation of the isoproterenol control was <10%. Insulin at 0.25 nM was used as a potent control for decreasing free fatty acid levels. […] Data presented are representative values from 2 independent experiments with each data point performed in triplicate in each independent experiment.

C2C12 Cells = test: Glucose utilization in cultured C2C12 cells (myotubes); assay type: cell-based, mouse; conditions: glucose concentration in medium relative to untreated cells; 5 μM peptide, 22 h
Protocol: The effect of the peptides on glucose homeostasis can be assessed using an assay to monitor glucose utilization by cultured cells such as mouse myotubes. Peptide arrays were initially prepared as 5 mM stock in DMSO and diluted to 0.5 mM in H2O; peptides were used at a final concentration of 5 μM (0.1% DMSO). Calculations for peptide concentrations based on approximate molecular weight of 2000 Daltons. C2C12 mouse muscle cell line was purchased from Millipore Sigma (Saint Louis, Mo.). C2C12 cells were seeded in standard medium (DMEM/low glucose (1 g/L)+10% Fetal Bovine Serum+antibiotics) at 7,500 cells/well on 96-well plates and grown to confluence at 37° C. in a humidified atmosphere of 5% CO2/95% air. Three days after plating the medium was removed and with Differentiation Medium (DMEM/low glucose (1 g/L)+2% Horse Serum+antibiotics) added. The cultures were placed at 37° C. in a humidified atmosphere of 5% CO2/95% air for 5 days with partially replacement of medium daily. After 5 days of differentiation, the medium was removed from myotube cultures and replaced with Assay Medium (DMEM/low glucose (1 g/L)+antibiotics). Culture were placed at 37° C. in a humidified atmosphere of 5% CO2/95% air for 5 h. Following the 5 h incubation the medium was removed and fresh Assay Medium containing compounds was added; 5 μM peptide or 1 mM metformin as a potent stimulator of glucose utilization. Cells were incubated for 22 h at 37° C. in a humidified atmosphere of 5% CO2/95% air. Following 22 h incubation, conditioned medium from each well was transferred to a fresh 96-well plate. Glucose concentrations in the medium were determined using a Glucose Assay kit (Abcam; Cambridge, Mass.) according to the manufacturer's instructions; absorbance measured using a Cytation 3 plate reader at 570 nm (BioTek, Winooski, Vt.). Untreated cells were used as reference for basal glucose utilization. Absorbance values were expressed as percent control activity relative to untreated treated cells for 5 μM peptide. The relative standard deviation from plate to plate of untreated control was <10%. […] Data presented are representative values from 2-3 independent experiments with each data point performed in triplicate in each independent experiment.

H4-IIE Cells = test: Glucose production in cultured H4-IIE cells; assay type: cell-based, rat; conditions: glucose concentration in medium relative to untreated cells; 5 μM peptide, 24 h
Protocol: The effect of the peptides on glucose homeostasis can be assessed using an assay to monitor glucose production by cultured cells such as rat hepatocytes. Peptide arrays were initially prepared as 5 mM stock in DMSO and diluted to 0.5 mM in H2O; peptides were used at a final concentration of 5 μM (0.1% DMSO). Calculations for peptide concentrations based on approximate molecular weight of 2000 Daltons. H4-IIE rat hepatic cell line was purchased from American Type Culture Collection (Manassas, Va.). H4-IIE cells were seeded in standard medium (DMEM/high glucose+10% Fetal Bovine Serum+antibiotics) at 100,000 cells/well on 96-well plates and allowed to adhere overnight at 37° C. in a humidified atmosphere of 5% CO2/95% air. 24 h after seeding, the medium was removed, cells were rinsed with glucose free DMEM, and the medium replaced with Glucose Production Medium (glucose free DMEM+2 mM sodium pyruvate+10 mM sodium lactate+antibiotics). The cultures were placed at 37° C. in a humidified atmosphere of 5% CO2/95% air overnight. The next morning, the medium was removed and fresh Glucose Production Medium containing compounds was added; 5 uM peptide or 0.5-1 nM insulin as a potent inhibitor of glucose production. Cells were incubated for 24 h at 37° C. in a humidified atmosphere of 5% CO2/95% air. Following 24 h incubation, conditioned medium from each well was transferred to a fresh 96-well plate. Glucose concentrations in the medium were determined using a Glucose Assay kit (Abcam; Cambridge, Mass.) according to the manufacturer's instructions; absorbance measured using a Cytation 3 plate reader at 570 nm (BioTek, Winooski, Vt.). Untreated cells were used as reference for maximal glucose production. Absorbance values were expressed as percent control activity relative to untreated treated cells for 5 μM peptide. The relative standard deviation from plate to plate of untreated control was <25%. […] Glucose levels for 0.5-1 nM insulin treatment were <5% of the untreated control value. Data are presented as representative values from 2-3 independent experiments with each data point performed in triplicate in each independent experiment.

28 (MGCSGSSVSQCYRVHTPQTKMPNAW) [compound 28]
Percent of Isoproterenol Control Activity (3T3-L1 Mouse Adipocytes): 105%
Percent of Control Activity (C2C12 Cells): 100%
Percent of Control Activity (H4-IIE Cells): 121%

29 (MGDCAVCDA) [compound 29]
Percent of Isoproterenol Control Activity (3T3-L1 Mouse Adipocytes): 90%
Percent of Control Activity (C2C12 Cells): 109%
Percent of Control Activity (H4-IIE Cells): 106%

30 (MGEGLEENPTNPITKPTLN) [compound 30]
Percent of Isoproterenol Control Activity (3T3-L1 Mouse Adipocytes): 98%
Percent of Control Activity (C2C12 Cells): 102%
Percent of Control Activity (H4-IIE Cells): 102%

31 (MGEVGLLWLGRI) [compound 31]
Percent of Isoproterenol Control Activity (3T3-L1 Mouse Adipocytes): 78%
Percent of Control Activity (C2C12 Cells): 107%
Percent of Control Activity (H4-IIE Cells): 101%

32 (MGGEWGMGVWTWGCFLVWM) [compound 32]
Percent of Isoproterenol Control Activity (3T3-L1 Mouse Adipocytes): 94%
Percent of Control Activity (C2C12 Cells): 108%
Percent of Control Activity (H4-IIE Cells): 100%

33 (MGGGVLLGLQ) [compound 33]
Percent of Isoproterenol Control Activity (3T3-L1 Mouse Adipocytes): 103%
Percent of Control Activity (C2C12 Cells): 111%
Percent of Control Activity (H4-IIE Cells): 100%

35 (MGGRWGLGWWRAG) [compound 35]
Percent of Isoproterenol Control Activity (3T3-L1 Mouse Adipocytes): 98%
Percent of Control Activity (C2C12 Cells): 108%
Percent of Control Activity (H4-IIE Cells): 100%

36 (MGLAAVCVCWVGWAGVVLM) [compound 36]
Percent of Isoproterenol Control Activity (3T3-L1 Mouse Adipocytes): 103%
Percent of Control Activity (C2C12 Cells): 106%
Percent of Control Activity (H4-IIE Cells): 101%

37 (MGLLEWLLCWHLLGRIINWWA) [compound 37]
Percent of Isoproterenol Control Activity (3T3-L1 Mouse Adipocytes): 106%
Percent of Control Activity (C2C12 Cells): 109%
Percent of Control Activity (H4-IIE Cells): 103%

38 (MGLWLVCWVL) [compound 38]
Percent of Isoproterenol Control Activity (3T3-L1 Mouse Adipocytes): 103%
Percent of Control Activity (C2C12 Cells): 108%
Percent of Control Activity (H4-IIE Cells): 111%

39 (MGNIIRAWCGEGCL) [compound 39]
Percent of Isoproterenol Control Activity (3T3-L1 Mouse Adipocytes): 99%
Percent of Control Activity (C2C12 Cells): 107%
Percent of Control Activity (H4-IIE Cells): 114%

40 (MGSPPPAGSKKVVL) [compound 40]
Percent of Isoproterenol Control Activity (3T3-L1 Mouse Adipocytes): 95%
Percent of Control Activity (C2C12 Cells): 109%
Percent of Control Activity (H4-IIE Cells): 109%

41 (MGSSRINPDPSPS) [compound 41]
Percent of Isoproterenol Control Activity (3T3-L1 Mouse Adipocytes): 99%
Percent of Control Activity (C2C12 Cells): 109%
Percent of Control Activity (H4-IIE Cells): 108%

42 (MGSSRLAVLCPPLHGQVNFTG) [compound 42]
Percent of Isoproterenol Control Activity (3T3-L1 Mouse Adipocytes): 106%
Percent of Control Activity (C2C12 Cells): 107%
Percent of Control Activity (H4-IIE Cells): 112%

43 (MGVGMEWGLLLRRGR) [compound 43]
Percent of Isoproterenol Control Activity (3T3-L1 Mouse Adipocytes): 103%
Percent of Control Activity (C2C12 Cells): 101%
Percent of Control Activity (H4-IIE Cells): 112%

44 (MGVKFFTLST) [compound 44]
Percent of Isoproterenol Control Activity (3T3-L1 Mouse Adipocytes): 112%
Percent of Control Activity (C2C12 Cells): 103%
Percent of Control Activity (H4-IIE Cells): 103%
